# Substitutions are numbered along the chain they refer to. Names may count otherwise.
# B1: Selenomethionine-substituted EcPhnD (natural protein, E. coli, UniProt P16682 27-338, looked up)
# chain: EEQEKALNFGIISTESQQNLKPQWTPFLQDMEKKLGVKVNAFFAPDYAGIIQGMRFNKVDIAWYGNLSAMEAVDRANGQVFAQTVAADGSPGYWSVLIVNKDSPINNLNDLLAKRKDLTFGNGDPNSTSGFLVPGYYVFAKNNISASDFKRTVNAGHETNALAVANKQVDVATNNTENLDKLKTSAPEKLKELKVIWKSPLIPGDPIVWRKNLSETTKDKIYDFFMNYGKTPEEKAVLERLGWAPFRASSDLQLVPIRQLALFKEMQGVKSNKGLNEQDKLAKTTEIQAQLDDLDRLNNALSAMSSVSKAVQ
# modifications: selenomethionine in place of methionine
# B2: EcPhnD H157A (natural protein, E. coli, UniProt P16682 27-338, looked up)
# chain: B1 chain with H157A
# Legend:
# [1] = target: EcPhnD90-cpGFP.L1ADΔΔ.L297R,L301R (Escherichia coli, UniProt Q1R3F7, L323R/L327R, form not given); assay type: binding
# EcPhnD142-cpGFP = assay type: binding, Escherichia coli
# EcPhnD-Q17C:IANBD = EcPhnD-Q17C:IANBD (Escherichia coli, UniProt P16682, Q43C); assay type: binding
# Chain of EcPhnD-Q17C:IANBD (P16682 27-338 Q43C): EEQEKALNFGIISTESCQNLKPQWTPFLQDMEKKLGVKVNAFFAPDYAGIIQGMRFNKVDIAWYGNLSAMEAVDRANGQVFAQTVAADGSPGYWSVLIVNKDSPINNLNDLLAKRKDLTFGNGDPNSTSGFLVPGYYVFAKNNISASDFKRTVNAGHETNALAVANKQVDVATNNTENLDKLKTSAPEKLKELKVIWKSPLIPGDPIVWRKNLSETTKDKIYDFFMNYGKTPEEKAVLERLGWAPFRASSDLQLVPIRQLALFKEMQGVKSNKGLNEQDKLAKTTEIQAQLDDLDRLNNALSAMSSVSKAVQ
# EcPhnD87-cpGFP = assay type: binding, Escherichia coli
# EcPhnD = EcPhnD (Escherichia coli, UniProt P16682); settings: read-out: affinity; cited from earlier work
# [2] = test system: EcPhnD with cpGFP inserted at position 147; assay type: binding, Escherichia coli
# EcPhnD-Q267C:acrylodan = settings: read-out: Phosphonate affinities (Kd); cited from earlier work
# EcPhnD-K181C:IANBD = EcPhnD-K181C:IANBD (Escherichia coli, UniProt P16682, K207C); experiment: biochemical; assay type: binding
# Chain of EcPhnD-K181C:IANBD (P16682 27-338 K207C): as the sequence (P16682 27-338 Q43C) above, with C17Q, K181C counted along it
# crystal structure = target: the molecule itself; experiment: crystal structure
molecule,measurement,setting,value
"NCCP(=O)(O)O [2AEP, 2-aminoethylphosphonate]",ΔF/F0 increase,[1],1.6
same,Kd,[1]; read-out: Phosphonate affinities (Kd),37000 ± 7000 nM
same,affinity for 2AEP by ITC (in words),EcPhnD142-cpGFP,dramatically decreased affinity
same,Kd,EcPhnD-Q17C:IANBD,11 ± 5 nM
same,ΔF/F0,EcPhnD-Q17C:IANBD,1.2±0.1
same,affinity for 2AEP by ITC (in words),EcPhnD87-cpGFP,high affinity
same,Kd,EcPhnD,~5 nM
same,affinity for 2AEP by ITC (in words),[2],dramatically decreased affinity
same,Kd,EcPhnD-Q267C:acrylodan,5 nM
same,Kd,EcPhnD-K181C:IANBD,540 ± 40 nM
same,ΔF/F0,EcPhnD-K181C:IANBD,−0.72±0.01
"O=C(O)CNCP(=O)(O)O [Glyphosate (GP), Glyphosate]",Kd,EcPhnD-Q267C:acrylodan,650000 nM
same,Kd,EcPhnD-K181C:IANBD,260000 ± 20000 nM
B1,stoichiometry N,crystal structure,2
B2,stoichiometry N,crystal structure,2
